In PubChem BioAssay AID256 (DTP/NCI, 2004):
Values joined by “and” are separate entries in the source; they are usually repeats but may differ in a detail not shown here. Equal entries are not always repeated. Toxic doses and inconclusive results are not listed.

Test system: CD2F1 mice, L1210 leukemia ip, survival T/C
Assay: NCI In Vivo Anticancer Drug Screen. Data for tumor model L1210 Leukemia (intraperitoneal) in CD2F1 (CDF1) mice
Settings: higher = longer survival
Method: The antitumor activity of compounds was measured in mice bearing transplantable tumors. Survival or tumor size were measured and the results are expressed as the measurement made in the treated group (T) divided by the measurement made in the vehicle treated control group (C). The tumor model used in this assay is L1210 Leukemia (intraperitoneal) in CD2F1 (CDF1) mice

[1] = endpoint: mean survival time, dose: 100.0 mg/kg/injection, schedule: Q01DX009 (ip), vehicle: Klucel (hydroxypropylcellulose) (HPC)
[2] = endpoint: mean survival time, dose: 400.0 mg/kg/injection, schedule: Q04DX003 (ip), vehicle: saline with Tween-80
[3] = endpoint: mean survival time, dose: 50.0 mg/kg/injection, schedule: Q01DX009 (ip), vehicle: saline
[4] = endpoint: mean survival time, dose: 100.0 mg/kg/injection, schedule: Q01DX009 (ip), vehicle: saline with Tween-80
[5] = endpoint: mean survival time, dose: 200.0 mg/kg/injection, schedule: Q01DX009 (ip), vehicle: saline with Tween-80
[6] = endpoint: mean survival time, dose: 400.0 mg/kg/injection, schedule: Q01DX009 (ip), vehicle: saline with Tween-80

## CN(Cc1cnc2nc(N)nc(N)c2n1)c1c(Cl)cc(C(=O)NC(CCC(=O)O)C(=O)O)cc1Cl (stereo not drawn)
endpoint: mean survival time, dose: 44.0 mg/kg/injection, schedule: Q01DX009 (ip), vehicle: sodium bicarbonate
  T/C: 224 % of control
endpoint: mean survival time, dose: 67.0 mg/kg/injection, schedule: Q01DX009 (ip), vehicle: sodium bicarbonate
  T/C: 256 % of control
endpoint: mean survival time, dose: 100.0 mg/kg/injection, schedule: Q01DX009 (ip), vehicle: sodium bicarbonate
  T/C: 193 % of control
endpoint: mean survival time, dose: 133.0 mg/kg/injection, schedule: Q01DX009 (ip), vehicle: sodium bicarbonate
  T/C: 170 % of control
endpoint: mean survival time, dose: 150.0 mg/kg/injection, schedule: Q01DX009 (ip), vehicle: sodium bicarbonate
  T/C: 116 % of control
endpoint: mean survival time, dose: 160.0 mg/kg/injection, schedule: Q01DX009 (ip), vehicle: sodium bicarbonate
  T/C: 123 % of control
endpoint: median survival time, dose: 125.0 mg/kg/injection, schedule: Q01DX009 (ip), vehicle: sodium bicarbonate
  T/C: 123 % of control
endpoint: median survival time, dose: 150.0 mg/kg/injection, schedule: Q01DX009 (ip), vehicle: sodium bicarbonate
  T/C: 112 % of control

## CC(=O)OC1=NC(C)c2c1cc(OC(C)=O)[nH]c2=O (stereo not drawn)
endpoint: mean survival time, dose: 6.25 mg/kg/injection, schedule: Q01DX009 (ip), vehicle: Klucel (hydroxypropylcellulose) (HPC)
  T/C: 104 % of control and 107 % of control
endpoint: mean survival time, dose: 12.5 mg/kg/injection, schedule: Q01DX009 (ip), vehicle: Klucel (hydroxypropylcellulose) (HPC)
  T/C: 101 % of control and 106 % of control
endpoint: mean survival time, dose: 25.0 mg/kg/injection, schedule: Q01DX009 (ip), vehicle: Klucel (hydroxypropylcellulose) (HPC)
  T/C: 104 % of control and 110 % of control
endpoint: mean survival time, dose: 50.0 mg/kg/injection, schedule: Q01DX009 (ip), vehicle: Klucel (hydroxypropylcellulose) (HPC)
  T/C: 100 % of control and 101 % of control
[1]
  T/C: 113 % of control and 102 % of control

## CC1CCOC(C(C)C)O1 (stereo not drawn)
endpoint: mean survival time, dose: 50.0 mg/kg/injection, schedule: Q04DX002 (ip), vehicle: saline
  T/C: 96 % of control
endpoint: mean survival time, dose: 100.0 mg/kg/injection, schedule: Q04DX002 (ip), vehicle: saline
  T/C: 96 % of control
endpoint: mean survival time, dose: 200.0 mg/kg/injection, schedule: Q04DX002 (ip), vehicle: saline
  T/C: 92 % of control

## COc1ccc(O)cc1C
endpoint: mean survival time, dose: 100.0 mg/kg/injection, schedule: Q01DX009 (ip), vehicle: other
  T/C: 96 % of control
endpoint: mean survival time, dose: 200.0 mg/kg/injection, schedule: Q01DX009 (ip), vehicle: other
  T/C: 102 % of control
endpoint: mean survival time, dose: 400.0 mg/kg/injection, schedule: Q01DX009 (ip), vehicle: other
  T/C: 98 % of control

## CCCCCCCCCCCCCCOc1ccc(C(=O)O)cc1
[1]
  T/C: 93 % of control
endpoint: mean survival time, dose: 100.0 mg/kg/injection, schedule: Q04DX003 (ip), vehicle: saline with Tween-80
  T/C: 91 % of control
endpoint: mean survival time, dose: 200.0 mg/kg/injection, schedule: Q01DX009 (ip), vehicle: Klucel (hydroxypropylcellulose) (HPC)
  T/C: 93 % of control
endpoint: mean survival time, dose: 200.0 mg/kg/injection, schedule: Q04DX003 (ip), vehicle: saline with Tween-80
  T/C: 90 % of control
endpoint: mean survival time, dose: 400.0 mg/kg/injection, schedule: Q01DX009 (ip), vehicle: Klucel (hydroxypropylcellulose) (HPC)
  T/C: 93 % of control
[2]
  T/C: 88 % of control

## CC(C)OC(=O)c1cc([N+](=O)[O-])c(Sc2ncnc3nc[nH]c23)c([N+](=O)[O-])c1
endpoint: mean survival time, dose: 0.63 mg/kg/injection, schedule: Q01DX005 (ip), vehicle: other
  T/C: 109 % of control
endpoint: mean survival time, dose: 1.25 mg/kg/injection, schedule: Q01DX005 (ip), vehicle: other
  T/C: 119 % of control
endpoint: mean survival time, dose: 2.5 mg/kg/injection, schedule: Q01DX005 (ip), vehicle: other
  T/C: 114 % of control
endpoint: mean survival time, dose: 5.0 mg/kg/injection, schedule: Q01DX005 (ip), vehicle: other
  T/C: 124 % of control
endpoint: mean survival time, dose: 9.9 mg/kg/injection, schedule: Q01DX005 (ip), vehicle: other
  T/C: 115 % of control
endpoint: mean survival time, dose: 25.0 mg/kg/injection, schedule: Q01DX005 (ip), vehicle: other
  T/C: 157 % of control
endpoint: mean survival time, dose: 33.3 mg/kg/injection, schedule: Q01DX005 (ip), vehicle: other
  T/C: 158 % of control
endpoint: mean survival time, dose: 50.0 mg/kg/injection, schedule: Q01DX005 (ip), vehicle: other
  T/C: 151 % of control and 178 % of control and 184 % of control
endpoint: mean survival time, dose: 100.0 mg/kg/injection, schedule: Q01DX005 (ip), vehicle: other
  T/C: 89 % of control

## CCN(CC)CCC(=O)c1ccccc1
endpoint: mean survival time, dose: 3.12 mg/kg/injection, schedule: Q01DX009 (ip), vehicle: saline with Tween-80
  T/C: 100 % of control
endpoint: mean survival time, dose: 3.12 mg/kg/injection, schedule: Q01DX009 (ip), vehicle: suspension in saline
  T/C: 96 % of control
endpoint: mean survival time, dose: 6.25 mg/kg/injection, schedule: Q01DX009 (ip), vehicle: saline with Tween-80
  T/C: 103 % of control
endpoint: mean survival time, dose: 6.25 mg/kg/injection, schedule: Q01DX009 (ip), vehicle: suspension in saline
  T/C: 95 % of control
endpoint: mean survival time, dose: 12.5 mg/kg/injection, schedule: Q01DX009 (ip), vehicle: saline with Tween-80
  T/C: 102 % of control
endpoint: mean survival time, dose: 12.5 mg/kg/injection, schedule: Q01DX009 (ip), vehicle: saline
  T/C: 90 % of control
endpoint: mean survival time, dose: 12.5 mg/kg/injection, schedule: Q01DX009 (ip), vehicle: suspension in saline
  T/C: 96 % of control
endpoint: mean survival time, dose: 25.0 mg/kg/injection, schedule: Q01DX009 (ip), vehicle: saline with Tween-80
  T/C: 103 % of control
endpoint: mean survival time, dose: 25.0 mg/kg/injection, schedule: Q01DX009 (ip), vehicle: saline
  T/C: 94 % of control
endpoint: mean survival time, dose: 25.0 mg/kg/injection, schedule: Q01DX009 (ip), vehicle: suspension in saline
  T/C: 106 % of control
endpoint: mean survival time, dose: 50.0 mg/kg/injection, schedule: Q01DX009 (ip), vehicle: saline with Tween-80
  T/C: 101 % of control
[3]
  T/C: 92 % of control
endpoint: mean survival time, dose: 50.0 mg/kg/injection, schedule: Q01DX009 (ip), vehicle: suspension in saline
  T/C: 106 % of control
[4]
  T/C: 93 % of control

## CN1C(=O)CC(c2ccc(N3C(=O)C=CC3=O)cc2)C1=O (stereo not drawn)
endpoint: mean survival time, dose: 6.25 mg/kg/injection, schedule: Q04DX002 (ip), vehicle: saline with Tween-80
  T/C: 96 % of control
endpoint: mean survival time, dose: 12.5 mg/kg/injection, schedule: Q04DX002 (ip), vehicle: saline with Tween-80
  T/C: 103 % of control
endpoint: mean survival time, dose: 25.0 mg/kg/injection, schedule: Q04DX002 (ip), vehicle: saline with Tween-80
  T/C: 96 % of control

## COc1cc2cc3c4cc(OC)c(OC)cc4cc[n+]3c(C)c2cc1OC (tested in a mixture with another compound)
[3]
  T/C: 95 % of control
endpoint: mean survival time, dose: 50.0 mg/kg/injection, schedule: Q04DX003 (ip), vehicle: saline
  T/C: 91 % of control
endpoint: mean survival time, dose: 200.0 mg/kg/injection, schedule: Q04DX003 (ip), vehicle: saline
  T/C: 122 % of control
[2]
  T/C: 88 % of control

## C#CCCOC(=O)Nc1ccccc1
endpoint: mean survival time, dose: 100.0 mg/kg/injection, schedule: Q04DX003 (ip), vehicle: Klucel (hydroxypropylcellulose) (HPC)
  T/C: 97 % of control
endpoint: mean survival time, dose: 200.0 mg/kg/injection, schedule: Q04DX003 (ip), vehicle: Klucel (hydroxypropylcellulose) (HPC)
  T/C: 100 % of control
endpoint: mean survival time, dose: 400.0 mg/kg/injection, schedule: Q04DX003 (ip), vehicle: Klucel (hydroxypropylcellulose) (HPC)
  T/C: 110 % of control

## CC1=CCc2c(c(NS(=O)(=O)c3ccccc3)c3ccccc3c2NS(=O)(=O)c2ccccc2)C1
endpoint: mean survival time, dose: 37.5 mg/kg/injection, schedule: Q01DX001 (ip), vehicle: saline sonified
  T/C: 95 % of control
endpoint: mean survival time, dose: 75.0 mg/kg/injection, schedule: Q01DX001 (ip), vehicle: saline sonified
  T/C: 96 % of control
endpoint: mean survival time, dose: 150.0 mg/kg/injection, schedule: Q01DX001 (ip), vehicle: saline sonified
  T/C: 89 % of control

## Nc1nc(N)c2cc(S(=O)(=O)c3ccccc3)ccc2n1
endpoint: median survival time, dose: 25.0 mg/kg/injection, schedule: Q01DX009 (ip), vehicle: saline with Tween-80
  T/C: 98 % of control
endpoint: median survival time, dose: 50.0 mg/kg/injection, schedule: Q01DX009 (ip), vehicle: saline with Tween-80
  T/C: 100 % of control
endpoint: median survival time, dose: 100.0 mg/kg/injection, schedule: Q01DX009 (ip), vehicle: saline with Tween-80
  T/C: 102 % of control
endpoint: median survival time, dose: 200.0 mg/kg/injection, schedule: Q01DX009 (ip), vehicle: saline with Tween-80
  T/C: 121 % of control

## CCN1CCC2OCOC2C1 (stereo not drawn)
endpoint: mean survival time, dose: 75.0 mg/kg/injection, schedule: Q01DX001 (ip), vehicle: saline
  T/C: 102 % of control
endpoint: mean survival time, dose: 150.0 mg/kg/injection, schedule: Q01DX001 (ip), vehicle: saline
  T/C: 102 % of control

## OC1C2CC3C(C2)C13 (stereo not drawn)
[4]
  T/C: 102 % of control and 106 % of control
[5]
  T/C: 96 % of control
[6]
  T/C: 98 % of control and 102 % of control

## O=C(O)c1cccs1
endpoint: mean survival time, dose: 100.0 mg/kg/injection, schedule: Q04DX003 (ip), vehicle: other
  T/C: 100 % of control
endpoint: mean survival time, dose: 200.0 mg/kg/injection, schedule: Q04DX003 (ip), vehicle: other
  T/C: 102 % of control

## O=Nc1c(O)sc2ccccc12
endpoint: mean survival time, dose: 100.0 mg/kg/injection, schedule: Q01DX001 (ip), vehicle: saline with Tween-80
  T/C: 110 % of control
[4]
  T/C: 97 % of control
endpoint: mean survival time, dose: 200.0 mg/kg/injection, schedule: Q01DX001 (ip), vehicle: saline with Tween-80
  T/C: 105 % of control
[5]
  T/C: 100 % of control
endpoint: mean survival time, dose: 400.0 mg/kg/injection, schedule: Q01DX001 (ip), vehicle: saline with Tween-80
  T/C: 95 % of control
[6]
  T/C: 94 % of control
